The text below walks through data of US8846951B2 (AbbVie Inc., priority 2009, dated 2014).

Read-outs that look alike come from different tables or passages of the source.

For one test, the target named is T1, 5HT2B receptors (Homo sapiens, UniProt P41595).
T1 construct: expressed in transfected cells; host or cells: CHO-K1 cells
Kind of test: Human 5-HT2B functional high throughput screening assay in CHO-K1 cells (calcium flux). It counts as cell-based. Conditions: for EC50: CHO-K1 cells, calcium flux; call rule not given here. The method, then:
(§1) (iii) Human 5-HT2C and 5-HT2B Functional High Throughput Screening Assays in CHO-K1 Cells
(§2) CHO-K1 cells over-expressing 5HT2C or 5HT2B receptors were grown in 1272 cm^2 flasks to 70-80% confluency in UltraCHO media (Lonza, Walkersville, Md.) supplemented with 1% dialyzed fetal bovine serum (FBS), 250 μg/mL zeocin, 100 U/mL penicillin and 100 μg/mL streptomycin, and 400 μg/mL geneticin. The cells were dissociated from the flasks using 0.05% trypsin, resuspended in Recovery™ cell culture freezing medium (Invitrogen, Carlsbad, Calif.) and stored in liquid nitrogen until use. The calcium flux experiments were done using frozen cells. The cells were diluted in media containing 1% dialyzed FBS and 100 U/mL penicillin and 100 μg/mL streptomycin and plated into 384-well poly-D-Lysine coated plates (15,000 cells/well). Then the plates were incubated overnight in a cell incubator at 37° C., 5% CO2. On the next day, the growth media was replaced with media without FBS and further incubated overnight. On day three, the changes in intracellular Ca^2+ were determined using calcium sensitive fluorescent dye, Ca4 (MDS Analytical Technologies, Sunnyvale, Calif.) by loading 15 μL of diluted dye in Hank's Balanced Salt Solution and 20 mM Hepes buffer (pH 7.4) with final concentration of 2.5 mM probenecid into the cells containing media. Then the cells were incubated at room temperature for 60 minutes in dark.
(§3) After incubation, the cell plates were transferred to FLIPR™ (MDS) and their fluorescence measurements were read at an excitation wavelength of 480 nm and an emission wavelength of 530 nm at 25° C. The baseline fluorescence was measured for the first 10 seconds and then 15 μL of 4× concentration of serotonin/test compound was added to the cells. The fluorescence intensity was captured every second for the first 1 minute followed by every 5 seconds for an additional 2 minutes. The increase in fluorescent response by a test compound was normalized to the response of serotonin and used to determine agonist activity. The concentration response of compounds was done from a starting concentration of 10 μM, 1:10 dilution across 6 wells with a final dimethyl sulfoxide concentration of 0.2% and was fitted using a 4-parameter logistic equation. The concentration at which a compound exerts half its maximal effect was named as ‘effective concentration 50’ or ‘EC50’. Emax is the maximum functional response or efficacy expressed as a percentage relative to the effect of serotonin.
For orientation: Calcium flux is commonly read through the fluorescence of an indicator in the cells.

In another test the target is T2, 5HT2C receptors (Homo sapiens, UniProt P28335).
T2 sequence (P28335 33-458): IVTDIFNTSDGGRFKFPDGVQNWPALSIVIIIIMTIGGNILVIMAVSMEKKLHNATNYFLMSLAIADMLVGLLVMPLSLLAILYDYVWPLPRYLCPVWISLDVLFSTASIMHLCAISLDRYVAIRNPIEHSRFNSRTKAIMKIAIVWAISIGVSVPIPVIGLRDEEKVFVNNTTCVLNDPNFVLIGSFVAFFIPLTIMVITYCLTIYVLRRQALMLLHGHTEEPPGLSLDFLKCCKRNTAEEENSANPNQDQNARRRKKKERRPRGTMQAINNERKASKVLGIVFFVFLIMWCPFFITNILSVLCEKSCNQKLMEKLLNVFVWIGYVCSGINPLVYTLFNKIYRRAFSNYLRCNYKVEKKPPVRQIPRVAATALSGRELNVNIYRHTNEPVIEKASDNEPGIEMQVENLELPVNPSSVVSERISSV
Put plainly: Human 5-HT2C functional high throughput screening assay in CHO-K1 cells (calcium flux). It is filed as cell-based. More on the design: expressed in transfected cells; host or cells: CHO-K1 cells. As to conditions: for Emax: 5-HT2C, maximum functional response as percentage relative to the effect of serotonin; for EC50: CHO-K1 cells, calcium flux. The method, then: as §1, §2, §3

Where [1] appears, read: 5-HT2B agonist activity, read-out: EC50.
Where [2] appears, read: 5-HT2B, maximum functional response as percentage relative to the effect of serotonin.
Where [3] appears, read: 5-HT2C agonist activity, read-out: EC50.

T1 sequence (P41595 whole entry): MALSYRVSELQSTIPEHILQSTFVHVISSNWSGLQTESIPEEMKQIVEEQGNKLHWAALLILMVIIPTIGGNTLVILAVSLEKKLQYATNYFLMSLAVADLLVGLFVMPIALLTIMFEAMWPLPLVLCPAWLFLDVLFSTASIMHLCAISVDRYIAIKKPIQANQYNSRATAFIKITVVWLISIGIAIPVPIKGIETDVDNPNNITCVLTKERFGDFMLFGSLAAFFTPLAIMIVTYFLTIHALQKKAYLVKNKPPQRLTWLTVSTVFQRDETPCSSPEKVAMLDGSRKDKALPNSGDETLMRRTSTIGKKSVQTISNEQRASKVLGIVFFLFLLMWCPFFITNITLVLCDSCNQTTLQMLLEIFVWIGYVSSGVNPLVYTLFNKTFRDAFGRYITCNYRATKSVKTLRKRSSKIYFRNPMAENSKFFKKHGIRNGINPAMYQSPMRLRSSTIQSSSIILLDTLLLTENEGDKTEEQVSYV

With `Cc1ccc2c(c1)[C@H]1CNC[C@@H]1CCO2` (relative stereo) [Example 290, Trans-9-methyl-2,3,3a,4,5,10b-hexahydro-1H-[1]benzoxepino[4,5-c]pyrrole], the Emax – broadly, the greatest response seen or fitted, relative to the assay's reference – came out at 35% on 5HT2B receptors (CHO-K1) and 80% at 5HT2C receptors (CHO-K1). The EC50 (in general, the concentration at which the effect is half-maximal) was 20 nM at 5HT2B receptors (EC50, 5-HT2B agonist activity) and 100 nM on 5HT2C receptors (EC50, 5-HT2C agonist activity).
In the case of `CN(C)C(=O)c1cccc(-c2ccc3c(c2)C(=O)NC[C@@H]2CNC[C@@H]32)c1` (relative stereo) [Example 230, N,N-Dimethyl-3-(trans-6-oxo-1,2,3,3a,4,5,6,10b-octahydrobenzo[c]pyrrolo[3,4-e]azepin-8-yl)benzamide], the values for the EC50 on 5HT2B receptors (setting [1]) and at 5HT2C receptors (setting [3]) were over 10000 nM and 80 nM, respectively. Besides, the Emax entry on 5HT2B receptors (setting [2]) is “inactive”; on 5HT2C receptors (CHO-K1, read-out: Emax), over 120%.
Take `CC(=O)c1cccc(-c2ccc3c(c2)C(=O)NC[C@@H]2CN(C)C[C@@H]32)c1` (relative stereo) [Example 237, Trans-8-(3-acetylphenyl)-2-methyl-1,2,3,3a,4,5-hexahydrobenzo[c]pyrrolo[3,4-e]azepin-6(10bH)-one]: the EC50 on 5HT2B receptors (setting [1]) was over 10000 nM; on 5HT2C receptors (setting [3]), 3 nM. The Emax result on 5HT2B receptors (setting [2]) is “inactive”; on 5HT2C receptors (CHO-K1, read-out: Emax), over 120%.
For `CN1C[C@H]2CNC(=O)c3cc(C4CCCC4)ccc3[C@@H]2C1` (relative stereo) [Example 205, Trans-8-cyclopentyl-2-methyl-1,2,3,3a,4,5-hexahydrobenzo[e]pyrrolo[3,4-c]azepin-6(10bH)-one], the EC50 at 5HT2B receptors (setting [1]) was over 10000 nM; at 5HT2C receptors (setting [3]) it was 300 nM. Besides, the results for the Emax entry on 5HT2B receptors (setting [2]) and on 5HT2C receptors (CHO-K1) were “inactive” and 90%, respectively.
In the case of `CN1C[C@H]2CNC(=O)c3cc(-c4ccc5c(c4)OCC5)ccc3[C@@H]2C1` (relative stereo) [Example 324, Trans-8-(2,3-dihydro-1-benzofuran-6-yl)-2-methyl-2,3,3a,4,5,10b-hexahydropyrrolo[3,4-d][2]benzazepin-6(1H)-one], the EC50 at 5HT2B receptors (setting [1]) was over 10000 nM; at 5HT2C receptors (setting [3]) it was 3 nM. Besides, the Emax entry at 5HT2B receptors (setting [2]) was “inactive”; at 5HT2C receptors (CHO-K1, read-out: Emax) it was 85%.
Consider `COc1ccc(-c2ccc3c(c2)C(=O)NC[C@H]2CN(C)C[C@H]32)c(F)c1` [Example 325, (3aS,10bS)-8-(2-Fluoro-4-methoxyphenyl)-2-methyl-2,3,3a,4,5,10b-hexahydropyrrolo[3,4-d][2]benzazepin-6(1H)-one], for which the EC50 at 5HT2B receptors (setting [1]) is over 10000 nM; at 5HT2C receptors (setting [3]) it was 2 nM. For the same compound, the Emax entry at 5HT2B receptors (setting [2]) is “inactive”; on 5HT2C receptors (CHO-K1, read-out: Emax), 90%.
In the case of `CC(C)c1cccc(-c2ccc3c(c2)C(=O)NC[C@@H]2CNC[C@@H]32)c1` (relative stereo) [Example 378, Trans-8-(3-isopropylphenyl)-2,3,3a,4,5,10b-hexahydropyrrolo[3,4-d][2]benzazepin-6(1H)-one], the EC50 was over 10000 nM at 5HT2B receptors (setting [1]) and 0.4 nM on 5HT2C receptors (setting [3]). Further, the Emax result at 5HT2B receptors (setting [2]) is “inactive”; at 5HT2C receptors (CHO-K1, read-out: Emax), 105%.
Consider `CC(=O)c1cccc(-c2ccc3c(c2)C(=O)N(C)C[C@@H]2CN(C)C[C@@H]32)c1` (relative stereo) [Example 191, Trans-8-(3-acetylphenyl)-2,5-dimethyl-1,2,3,3a,4,5-hexahydrobenzo[e]pyrrolo[3,4-c]azepin-6(10bH)-one], for which the EC50 on 5HT2B receptors (setting [1]) is over 10000 nM; at 5HT2C receptors (setting [3]), 40 nM. The Emax entry at 5HT2B receptors (setting [2]) is “inactive”; at 5HT2C receptors (CHO-K1, read-out: Emax), 110%.
In the same order, the values of `COc1ccc(-c2ccc3c(c2)C(=O)NC[C@@H]2CN(C)C[C@@H]32)cc1C` (relative stereo) [Example 315, Trans-8-(4-methoxy-3-methylphenyl)-2-methyl-2,3,3a,4,5,10b-hexahydropyrrolo[3,4-d][2]benzazepin-6(1H)-one] are over 10000 nM, 30 nM, “inactive” and 90%.
As to `CNC(=O)c1ccc(-c2cccc3c2OCC[C@H]2CNC[C@H]32)cc1` (relative stereo) [Example 371, 4-[Trans-2,3,3a,4,5,10b-hexahydro-1H-[1]benzoxepino[4,5-c]pyrrol-7-yl]-N-methylbenzamide], the concentration giving a half-maximal response (EC50) on 5HT2B receptors (setting [1]) is over 10000 nM; at 5HT2C receptors (setting [3]), 600 nM. The Emax result on 5HT2B receptors (setting [2]) is “inactive”; at 5HT2C receptors (CHO-K1, read-out: Emax) it was 95%.
For the compound `CCC(C)Oc1ccc2c(c1)C(=O)NC[C@@H]1CN(C)C[C@@H]21` (relative stereo) [Example 170, Trans-8-sec-butoxy-2-methyl-1,2,3,3a,4,5-hexahydrobenzo[e]pyrrolo[3,4-c]azepin-6(10bH)-one], the maximal effect (Emax) entry is “inactive” on 5HT2B receptors (setting [2]) and 120% at 5HT2C receptors (CHO-K1). The EC50 was over 10000 nM at 5HT2B receptors (EC50, 5-HT2B agonist activity) and 70 nM on 5HT2C receptors (EC50, 5-HT2C agonist activity).
In the same order, the values of `CC(C)=Cc1ccc2c(c1)C(=O)NC[C@@H]1CN(C)C[C@@H]21` (relative stereo) [Example 197, Trans-2-methyl-8-(2-methylprop-1-enyl)-1,2,3,3a,4,5-hexahydrobenzo[e]pyrrolo[3,4-c]azepin-6(10bH)-one] are “inactive”, over 120%, over 10000 nM and 3 nM.
As for `C[C@@H](O)c1cccc(-c2ccc3c(c2)C(=O)NC[C@H]2CN(C)C[C@H]32)c1` [Example 294, (3aS,10bS)-8-{3-[(1R)-1-hydroxyethyl]phenyl}-2-methyl-2,3,3a,4,5,10b-hexahydropyrrolo[3,4-d][2]benzazepin-6(1H)-one], the EC50 at 5HT2B receptors (setting [1]) was over 10000 nM. Further, the values for the Emax entry at 5HT2B receptors (setting [2]) and at 5HT2C receptors were “inactive” and 100%, respectively.
For the compound `CCC(O)c1cccc(-c2ccc3c(c2)C(=O)NC[C@H]2CN(C)C[C@H]32)c1` (stereo partly drawn) [Example 311, (3aS,10bS)-8-[3-(1-Hydroxypropyl)phenyl]-2-methyl-2,3,3a,4,5,10b-hexahydropyrrolo[3,4-d][2]benzazepin-6(1H)-one], the EC50 at 5HT2B receptors (setting [1]) was over 10000 nM; at 5HT2C receptors (setting [3]), 0.8 nM. For the same compound, the Emax entry on 5HT2B receptors (setting [2]) is “inactive”; on 5HT2C receptors (CHO-K1, read-out: Emax), 95%.
As for `CC(C)COc1ccc2c(c1)C(=O)NC[C@@H]1CNC[C@@H]21` [Example 309, (3aS,10bR)-8-Isobutoxy-2,3,3a,4,5,10b-hexahydropyrrolo[3,4-d][2]benzazepin-6(1H)-one], the values for the Emax entry on 5HT2B receptors (setting [2]) and on 5HT2C receptors (CHO-K1) were “inactive” and 70%, respectively. In addition, the EC50 at 5HT2B receptors (EC50, 5-HT2B agonist activity) was over 10000 nM.
`O=C1NC[C@@H]2CN(Cc3ccccc3)C[C@H]2c2ccc(-c3ccc(F)cc3)cc21` (relative stereo) [Example 218, Trans-2-benzyl-8-(4-fluorophenyl)-1,2,3,3a,4,5-hexahydrobenzo[e]pyrrolo[3,4-c]azepin-6(10bH)-one]: the EC50 on 5HT2B receptors (setting [1]) is over 10000 nM; at 5HT2C receptors (setting [3]) it was 40 nM. Further, the Emax entry was “inactive” on 5HT2B receptors (setting [2]) and over 120% on 5HT2C receptors (CHO-K1, read-out: Emax).
In the same order, the values of `COc1ccc(F)cc1-c1ccc2c(c1)C(=O)NC[C@@H]1CN(C)C[C@@H]21` (relative stereo) [Example 300, Trans-8-(5-fluoro-2-methoxyphenyl)-2-methyl-2,3,3a,4,5,10b-hexahydropyrrolo[3,4-d][2]benzazepin-6(1H)-one] are over 10000 nM, 50 nM, “inactive” and 100%.
